Laboratory results reported in PMC9794608 (Frontiers in Veterinary Science, 2022).

Assays:
[1] = system: mice; parameters: method as in PMID 32943547; details: cited from earlier work
[2] = system: laboratory beagle dogs; test: Sapanisertib escalating oral dose tolerability assessment; type: in vivo
Method: Determining a 0.1 mg/kg sapanisertib dosage for repeat dose studies was based upon extrapolation of previous studies in mice ([13], [20]), leading to initial evaluation of escalating individual oral doses of 0.1, 0.5, 0.65, and 0.8 mg/kg in one male (M), and one female (F) dog with a ≥3-day washout period between doses.
The initial efforts with sapanisertib focused on dose selection for ultimate testing in combination with orally administered trametinib dimethyl sulfoxide (trametinib) in nontumor-bearing laboratory beagle dogs. […] Sapanisertib dose escalation consisted of increased individual doses beginning with 0.10 mg/kg sapanisertib followed by a washout period of at least 3 days, and up to 7 days, between doses (Figure 2). Dogs lost body weight when dosed with ≥0.5 mg/kg sapanisertib. By day 23, the male dog had lost approximately 19% of initial body weight, while the female dog lost 7% body weight, and sapanisertib exposure was discontinued (Figure 2A). There was a trend toward recovery of modest amounts of body weight in these two dogs with the passage of sufficient time, post dose.
Figure 2 Sapanisertib escalating oral dose tolerability assessment in dogs. […] (A) Body weight (b.w.) changes with respect to time of first dose, in response to dosing as indicated. (B) Sapanisertib impact on select clinical pathology parameters for the testing days shown on x axis. Values on the y axis represent pre-treatment samples (0 days). Yellow-shaded area indicates reference range of values for normal healthy beagle dogs (Charles River Labs). Serum enzymes: ALT, alanine aminotransferase; AST, aspartate aminotransferase; ALP, alkaline phosphatase.

[3] = by day 23, escalating oral doses 0.1, 0.5, 0.65, 0.8 mg/kg
[4] = ≥ 0.5 mg/kg, both sexes, as low as

Q: Which results are given for `CC(C)n1nc(-c2ccc3oc(N)nc3c2)c2c(N)ncnc21` [Sapanisertib]?
A: Kidney findings in mice, every other day dosing ([1]; mice, […] sapanisertib every other day): did not exhibit substantive AKI; Kidney findings in mice, daily dosing ([1]; some mice given […] sapanisertib daily): acute kidney injury (AKI) with moderate histopathological cortical tubular epithelial degeneration and necrosis; Serum chloride, times the pre-study value ([2]; 0.8 mg/kg, male): 0.89 x; Serum sodium, times the pre-study value ([2]; 0.8 mg/kg, male): 0.98 x; Loss of body weight, female dog [2, 3]: 7%; Loss of initial body weight, male dog [2, 3]: approximately 19%; Dose at which dogs lost body weight ([2]; individual oral doses, 1 male and 1 female): ≥ 0.5 mg/kg; Red blood cell reticulocyte counts ([2]; ≥ 0.5 mg/kg, both sexes): moderate to marked decreases; Serum cholesterol concentrations ([2]; ≥ 0.5 mg/kg, both sexes): minimal to mild increases; Alanine aminotransferase (ALT), times the pre-study value [2, 4]: ≥ 0.41 x; Aspartate aminotransferase (AST), times the pre-study value [2, 4]: ≥ 0.68 x; Serum alkaline phosphatase (ALP), times the pre-study value [2, 4]: ≥ 0.36 x
